Assays:
[1] = Dissolving power for crystalline UV light protection filters; type: physicochemical; details: 22° C., percent by weight; for Dissolving power (maximum dissolved amount of UV filter) BP-3: Benzophenone-3 dissolved in the product; for Dissolving power (maximum dissolved amount of UV filter) BEMT: Bis-ethylhexyloxyphenol Methoxyphenyl Triazine dissolved in the product; for Dissolving power (maximum dissolved amount of UV filter) BMDM: Butyl Methoxydibenzoylmethane dissolved in the product; for Dissolving power (maximum dissolved amount of UV filter) EHT: Octyl Triazone dissolved in the product
Source text: Four representative UV-A or UV-B light protection filters were chosen as representatives for testing the dissolving power for crystalline UV light protection filters in isononyl benzoate (Vestinol® INB, Evonik Oxeno GmbH). These were Benzophenone-3 (2-hydroxy-4-methoxy-benzophenone, BP-3), Butyl Methoxydibenzoylmethane (BMDM), Octyl Triazone (2,4,6-trianilino-p-(carbo-2′-ethylhexyl-1′-oxy)-1,3,5-triazine, EHT) and bemotrizinol (Bis-ethylhexyloxyphenol Methoxyphenyl Triazine, BEMT).
For determination of the dissolving power for these […] UV light protection filters, in each case a particular amount (50 g) of one of the compounds according to the invention was initially introduced into the dissolving vessel and temperature-controlled at 22° C. 1 percent by weight of a UV light protection filter was then added and the mixture was stirred until this amount had dissolved completely and homogeneously. This operation was repeated until the maximum amount of the UV light protection filter which can be dissolved had been exceeded. For complete dissolving, a relatively long stirring time of several hours was often necessary at higher concentrations.
Once the maximum concentration had been roughly determined in this manner, the test was repeated with smaller weights of the UV light protection filter for fine determination of the concentration range around this maximum concentration.
The compound Tegosoft® TN (C12-15 Alkyl Benzoate) was used as a reference.

[2] = known solvents (lipids) for this UV-B filter; cited from earlier work

| Molecule | Dissolving power (maximum dissolved amount of UV filter) BP-3 [1] | Dissolving power (maximum dissolved amount of UV filter) BEMT [1] | Dissolving power (maximum dissolved amount of UV filter) BMDM [1] | Dissolving power (maximum dissolved amount of UV filter) EHT [1] | Maximum amount of the filter dissolved by known solvents [2] |
| --- | --- | --- | --- | --- | --- |
| CC(C)CCCCCCOC(=O)c1ccccc1 [Isononyl Benzoate, isononyl benzoate] | 21% | 12% | 14% | 6% | – |
| CCCCC(CC)COC(=O)c1ccc(Nc2nc(Nc3ccc(C(=O)OCC(CC)CCCC)cc3)nc(Nc3ccc(C(=O)OCC(CC)CCCC)cc3)n2)cc1 (stereo not drawn) [UVINUL™ T 150, 4,4′,4″-(1,3,5-Triazine-2,4,6-triyltriimino)-tris-benzoic acid tris(2-ethylhexyl ester)] | – | – | – | – | approx. 15 wt. % |
| C12-15 Alkyl Benzoate [Tegosoft ® TN, reference compound] | 15% | 9% | 13% | 4% | – |
